Active and inactive are the calls of the source. No rule for the calls is given here.
The molecules below were run against Ubiquitin-conjugating enzyme E2 N (Homo sapiens) (UniProt P61088) (assay: NMR detection of UBE2N ligand binding – biophysical, purified protein (AID 1552)). Details: NMR binding to purified UBE2N.
Ubiquitin-conjugating enzyme E2 N (Homo sapiens), sequence (P61088 whole entry, looked up): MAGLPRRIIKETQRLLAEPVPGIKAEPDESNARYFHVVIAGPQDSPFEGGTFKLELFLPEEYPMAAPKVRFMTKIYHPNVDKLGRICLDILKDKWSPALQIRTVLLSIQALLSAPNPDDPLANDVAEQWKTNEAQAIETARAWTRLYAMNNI

SMILES | Kd
O=C(Nc1c[nH]c(=O)[nH]c1=O)c1ccccc1F | > 4 mM (inactive)
CC(=O)Oc1ccc2c(c1OC(C)=O)OCC1(O)Cc3c(cc(OC(C)=O)c(OC(C)=O)c3OC(C)=O)C21 (stereo not drawn) | > 4 mM (inactive)
O/N=C1/CCCc2nonc21 | > 4 mM (inactive)
CC(C)CCCC(C)C1CCC2C3CC(=O)[C@H]4C[C@@H](O)CC[C@]4(C)C3CC[C@]12C (stereo partly drawn) | > 4 mM (inactive)
C[C@@H]1[C@H]2[C@H](O[C@@H]3O[C@H](CO)[C@@H](O)[C@H](O)[C@H]3O)OC=C(C(=O)O)[C@H]2C[C@@H]1O | > 4 mM (inactive)
COC(=O)C(O)[C@@H]1C2(C)C(=O)[C@@H](CC3=C4CC(=O)O[C@@H](c5ccoc5)[C@]4(C)CCC32)[C@H](OC(C)=O)C1(C)C (stereo partly drawn) | > 4 mM (inactive)
COCc1nn2c(N)c(C#N)cnc2c1-c1ccccc1 | > 4 mM (inactive)
O=C1C2C3C=CC(O3)C2C(=O)N1c1ccccc1 (stereo not drawn) | > 4 mM (inactive)
c1ccc(CCc2nc(-c3cccnc3)no2)cc1 | > 4 mM (inactive)
CSc1cc(C)[nH]c(=O)n1 | > 4 mM (inactive)
Cc1cccc(NC(=O)Nc2cc(C)on2)c1 | > 4 mM (inactive)
Cc1nnc(NC(=O)C(C)Sc2nncn2C)s1 (stereo not drawn) | > 4 mM (inactive)
CCN1C(=O)c2cccc3c(S(N)(=O)=O)ccc1c23 | > 4 mM (inactive)
Cc1cc(C)nc(/N=C(\N)N2CCc3ccccc32)n1 | > 4 mM (inactive)
O=C(O)c1ccc2c(c1)OCCO2 | > 4 mM (inactive)
COc1ccccc1N1C(=N)SCC1=O | > 4 mM (inactive)
Cc1csc(CCc2nc(C)cs2)n1 | > 4 mM (inactive)
O=c1c(-c2cccs2)[n+]([O-])c2ccccc2n1O | > 4 mM (inactive)
CCCCCCCCCCCCCCCCCCOCC(O)CO (stereo not drawn) | > 4 mM (inactive)
O=C1N=C(N2CCOCC2)S/C1=C\c1cccnc1 | > 4 mM (inactive)
CSc1n[nH]c(NCc2ccccc2)n1 | > 4 mM (inactive)

SMILES | Kd
NC(=O)Cn1nc(-c2ccco2)ccc1=O | > 4 mM (inactive)
CC1=C(C(N)=O)C(c2ccccc2)NC(=O)N1 (stereo not drawn) | > 4 mM (inactive)
OCc1ccc2ncccc2c1 | > 4 mM (inactive)
COc1ccc(C(C)=O)c(OC)c1 | > 4 mM (inactive)
CNC(=S)Nc1ncn(Cc2cccc(F)c2)n1 | > 4 mM (inactive)
COc1cccc(NC(=O)c2ncn[nH]2)c1 | > 4 mM (inactive)
O=C(c1ccccc1)c1ccc(N2CCNCC2)cc1 | > 4 mM (inactive)
COc1ccc(Cl)cc1NC(=O)C(N)=O | > 4 mM (inactive)
CN1CCn2c1nc(N1CCOCC1)nc2=O | > 4 mM (inactive)
Cn1cc(Cl)c(C(=O)NC2CCCC2)n1 | > 4 mM (inactive)
CN1CCN(CC(O)c2ccccc2)CC1 (stereo not drawn) | > 4 mM (inactive)
CSc1nnc2c(n1)OC=Nc1ccccc1-2 | > 4 mM (inactive)
c1ccc(CCc2nc(-c3ccccn3)no2)cc1 | > 4 mM (inactive)
S=C(NCC1CCCO1)NC1CC1 (stereo not drawn) | > 4 mM (inactive)
CS(=O)(=O)Nc1nnc(Cc2ccccc2)s1 | > 4 mM (inactive)
Cc1cc(C(=O)Nc2ccc3c(c2)OCO3)cs1 | > 4 mM (inactive)
COc1ccc(C2CC(=O)NN2)cc1OC1CCCC1 (stereo not drawn) | > 4 mM (inactive)
O=C(NC(=O)N1CCOCC1)c1ccccc1 | > 4 mM (inactive)
CN1C(=O)c2ccc(C(=O)NC3CCCCC3)cc2C1=O | > 4 mM (inactive)
O=c1[nH]cc(S(=O)(=O)Nc2ccccc2)c(=O)[nH]1 | > 4 mM (inactive)
NC(=O)Nc1cccc(C(F)(F)F)c1 | > 4 mM (inactive)

SMILES | Kd
O=C(NCc1ccccc1Cl)c1cnn2cccnc12 | > 4 mM (inactive)
O=C(O)c1cccc2nsnc12 | > 4 mM (inactive)
O=C(NC12CC3CC(CC(C3)C1)C2)c1cnccn1 | > 4 mM (inactive)
O=c1[nH]cc(N=Cc2ccc(F)cc2)c(=O)[nH]1 | > 4 mM (inactive)
O=C(NCC1CCNCC1)c1ccncc1 | > 4 mM (inactive)
COC(=O)CC1SC(=O)NC1=O (stereo not drawn) | > 4 mM (inactive)
O=C(O)C1CC2CC1CCC2O (stereo not drawn) | > 4 mM (inactive)
COC(=O)[C@]1(C)CCC[C@]2(C)c3ccc(C(C)C)cc3C(=O)CC12 (stereo partly drawn) | > 4 mM (inactive)
O=C(Nc1ccccn1)c1cc(-n2cnnc2)ccc1Cl | > 4 mM (inactive)
COc1ccc([C@@H]2CC(=O)c3c(O)cc(O)cc3O2)cc1O | > 4 mM (inactive)
CC1(C)C2CC[C@]3(C)C(C(=O)C=C4[C@@H]5C[C@@](C)(C(=O)O)CC[C@]5(C)CC[C@]43C)[C@@]2(C)CC[C@@H]1O (stereo partly drawn) | > 4 mM (inactive)
CC(=O)Nc1nc2c(s1)C(=O)NCCC2 | > 4 mM (inactive)
NC(=O)CCn1ncc2ccccc21 | > 4 mM (inactive)
COc1c(O)cc(O)cc1O | > 4 mM (inactive)
O=c1c(O)c(-c2ccccc2)oc2ccc3occc3c12 | > 4 mM (inactive)
O=C(c1ccccc1)N1CCN(c2ccccc2F)CC1 | > 4 mM (inactive)
OCc1nccn1Cc1ccccc1 | > 4 mM (inactive)
NC(=O)c1cc(N)ccc1N1CCCCC1 | > 4 mM (inactive)
Cc1ccccc1NC(=O)C1CCC(=O)N1 (stereo not drawn) | > 4 mM (inactive)
CC(O)c1nc2ccccc2[nH]1 (stereo not drawn) | > 4 mM (inactive)
O=C(O)CCC(=O)Nc1ccccn1 | > 4 mM (inactive)

SMILES | Kd
COC[C@]12CN(C=O)C3[C@@H]4[C@H](OC)C1[C@]3(C1CC3(O)C(OC)C(O)C4(OC(C)=O)C1C3OC(=O)c1ccccc1)[C@@H](OC)C[C@H]2O (stereo partly drawn) | > 4 mM (inactive)
CC(C)CCCC(C)[C@H]1CCC2C3CC[C@@H]4C[C@H](O)CC[C@]4(C)C3CC[C@@]21C (stereo partly drawn) | > 4 mM (inactive)
CS(=O)(=O)N/N=C/c1cccs1 | > 4 mM (inactive)
CSc1ccccc1NC(=O)c1c(C)noc1C | > 4 mM (inactive)
Cc1ccc(-c2nnc3sc(-c4ccncc4)nn23)cc1 | > 4 mM (inactive)
Cc1n[nH]c(C)c1N | > 4 mM (inactive)
O=C(O)CCC(=O)Nc1ccccc1F | > 4 mM (inactive)
NC1CSCC1O (stereo not drawn) | > 4 mM (inactive)
CCOc1ccc(-c2c(=O)n(O)c3ccccc3[n+]2[O-])cc1 | > 4 mM (inactive)
O=C(Nc1ccc2c(c1)OCO2)c1c(F)cccc1F | > 4 mM (inactive)
C=C1C2=CC(=O)O[C@@H](c3ccoc3)[C@]2(C)CCC1[C@@]1(C)C=CC(=O)C(C)(C)[C@@H]1CC(=O)OC (stereo partly drawn) | > 4 mM (inactive)
COc1nc(-c2ccccc2)ccc1-c1noc(C)n1 | > 4 mM (inactive)
CCOc1cccc(C(=O)c2ccc(O)c(O)c2O)c1 | > 4 mM (inactive)
CCN1CCN(c2ncnc3c2nnn3C)CC1 | > 4 mM (inactive)
CC(=O)OC[C@@]1(O)C[C@@]23CCC4c5ccoc5CC[C@]4(C)C2CC[C@@H]1C3 (stereo partly drawn) | > 4 mM (inactive)
COc1cc([C@@H]2c3cc4c(cc3[C@H](O)[C@H]3COC(=O)[C@H]23)OCO4)cc(OC)c1OC | > 4 mM (inactive)
Cc1cccc(NS(=O)(=O)c2cccs2)n1 | > 4 mM (inactive)
O=C1CCCN1C(=O)c1ccc(F)cc1 | > 4 mM (inactive)
Cc1ccc(/C=C2/C(=O)N=C(N)N2C)s1 | > 4 mM (inactive)
O=C1C2C3C=CC(C3)C2C(=O)N1CCO (stereo not drawn) | > 4 mM (inactive)
